Our source for the Kd values is ChEMBL document CHEMBL3991601, “The target landscape of clinical kinase drugs” (Science, 2017).

Assay [1] concerns the target Serine/threonine-protein kinase N2 (Homo sapiens, UniProt Q16513).
Assay [2] concerns the target NADH dehydrogenase [ubiquinone] 1 alpha subcomplex subunit 13 (Homo sapiens, UniProt Q9P0J0).
The target of assay [3] is Elongation factor Tu, mitochondrial (Homo sapiens, UniProt P49411).
Assay [4] concerns the target T1, Serine/threonine-protein kinase TAO3 (Homo sapiens, UniProt Q9H2K8).
T1 sequence (Q9H2K8 whole entry): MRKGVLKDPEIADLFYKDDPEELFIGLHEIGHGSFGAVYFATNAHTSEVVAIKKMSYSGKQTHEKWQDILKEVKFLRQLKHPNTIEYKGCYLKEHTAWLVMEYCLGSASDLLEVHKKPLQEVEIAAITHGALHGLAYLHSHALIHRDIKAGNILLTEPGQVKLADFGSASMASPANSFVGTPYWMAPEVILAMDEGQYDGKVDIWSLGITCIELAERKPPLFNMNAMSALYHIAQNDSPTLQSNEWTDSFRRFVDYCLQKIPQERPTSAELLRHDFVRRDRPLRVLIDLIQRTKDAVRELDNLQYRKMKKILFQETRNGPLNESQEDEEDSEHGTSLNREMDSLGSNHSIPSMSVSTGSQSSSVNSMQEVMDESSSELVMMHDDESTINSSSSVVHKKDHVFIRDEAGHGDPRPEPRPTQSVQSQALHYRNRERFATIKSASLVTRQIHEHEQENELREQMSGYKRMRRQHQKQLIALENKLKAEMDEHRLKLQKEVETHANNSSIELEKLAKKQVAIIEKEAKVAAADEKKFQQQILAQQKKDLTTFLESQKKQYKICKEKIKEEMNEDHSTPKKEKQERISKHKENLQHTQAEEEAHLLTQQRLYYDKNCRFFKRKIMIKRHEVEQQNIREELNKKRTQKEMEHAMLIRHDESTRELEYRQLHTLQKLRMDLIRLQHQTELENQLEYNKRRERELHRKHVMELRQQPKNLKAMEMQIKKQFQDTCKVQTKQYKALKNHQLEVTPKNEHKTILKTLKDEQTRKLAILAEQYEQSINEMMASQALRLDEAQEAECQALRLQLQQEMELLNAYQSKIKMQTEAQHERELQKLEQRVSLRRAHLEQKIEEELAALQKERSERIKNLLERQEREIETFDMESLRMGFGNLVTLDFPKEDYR

In assay [5] the target is Focal adhesion kinase 1 (Homo sapiens, UniProt Q05397).
Focal adhesion kinase 1, sequence (Q05397 whole entry): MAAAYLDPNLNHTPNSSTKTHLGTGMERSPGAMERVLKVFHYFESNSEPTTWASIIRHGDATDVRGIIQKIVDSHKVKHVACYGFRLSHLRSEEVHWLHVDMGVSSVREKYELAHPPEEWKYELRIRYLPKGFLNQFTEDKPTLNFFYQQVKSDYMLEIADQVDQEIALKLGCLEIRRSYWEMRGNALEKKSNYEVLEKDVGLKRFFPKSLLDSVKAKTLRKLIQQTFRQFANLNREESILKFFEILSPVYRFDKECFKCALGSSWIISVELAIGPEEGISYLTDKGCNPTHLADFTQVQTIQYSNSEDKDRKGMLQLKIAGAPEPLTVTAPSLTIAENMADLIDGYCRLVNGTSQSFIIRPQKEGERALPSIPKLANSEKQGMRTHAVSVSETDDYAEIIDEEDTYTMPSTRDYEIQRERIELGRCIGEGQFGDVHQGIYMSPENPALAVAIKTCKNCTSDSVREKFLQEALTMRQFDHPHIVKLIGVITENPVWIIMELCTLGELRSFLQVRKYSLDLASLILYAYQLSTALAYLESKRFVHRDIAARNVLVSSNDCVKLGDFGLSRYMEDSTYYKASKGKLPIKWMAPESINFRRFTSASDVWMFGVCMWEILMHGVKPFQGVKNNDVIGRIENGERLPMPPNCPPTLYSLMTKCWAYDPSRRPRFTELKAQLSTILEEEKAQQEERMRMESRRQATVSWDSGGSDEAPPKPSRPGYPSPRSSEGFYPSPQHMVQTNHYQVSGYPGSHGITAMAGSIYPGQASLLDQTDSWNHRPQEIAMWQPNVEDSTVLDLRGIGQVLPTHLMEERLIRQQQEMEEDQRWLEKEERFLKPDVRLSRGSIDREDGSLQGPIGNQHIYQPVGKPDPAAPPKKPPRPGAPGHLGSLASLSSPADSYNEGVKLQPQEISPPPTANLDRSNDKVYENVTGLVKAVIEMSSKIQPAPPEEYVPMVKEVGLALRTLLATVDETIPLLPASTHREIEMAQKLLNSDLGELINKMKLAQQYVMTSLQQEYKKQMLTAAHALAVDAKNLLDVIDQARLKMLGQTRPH
Assay [6] concerns the target Myosin-14 (Homo sapiens, UniProt Q7Z406).
Assay [7] concerns the target T2, Tyrosine-protein kinase Tec (Homo sapiens, UniProt P42680).
T2 sequence (P42680 whole entry): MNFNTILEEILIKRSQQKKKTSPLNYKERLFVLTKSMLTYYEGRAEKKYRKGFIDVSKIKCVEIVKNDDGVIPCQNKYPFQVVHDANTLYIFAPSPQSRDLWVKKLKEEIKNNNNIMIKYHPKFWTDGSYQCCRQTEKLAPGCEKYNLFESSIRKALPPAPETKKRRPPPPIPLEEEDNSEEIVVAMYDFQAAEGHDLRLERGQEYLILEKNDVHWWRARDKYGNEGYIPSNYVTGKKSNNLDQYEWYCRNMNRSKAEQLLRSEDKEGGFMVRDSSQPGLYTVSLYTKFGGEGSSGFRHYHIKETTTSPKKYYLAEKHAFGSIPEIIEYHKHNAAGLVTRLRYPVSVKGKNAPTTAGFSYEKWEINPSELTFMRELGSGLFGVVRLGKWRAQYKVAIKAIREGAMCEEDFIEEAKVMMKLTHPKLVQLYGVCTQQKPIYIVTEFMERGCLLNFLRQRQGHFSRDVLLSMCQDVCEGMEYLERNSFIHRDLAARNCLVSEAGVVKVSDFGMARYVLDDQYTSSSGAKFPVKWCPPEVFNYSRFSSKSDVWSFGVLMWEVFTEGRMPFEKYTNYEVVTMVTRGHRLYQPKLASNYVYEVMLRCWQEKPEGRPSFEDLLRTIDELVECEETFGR

For assay [8], the target named is T3, Cytochrome c1, heme protein, mitochondrial (Homo sapiens, UniProt P08574).
T3 sequence (P08574 whole entry): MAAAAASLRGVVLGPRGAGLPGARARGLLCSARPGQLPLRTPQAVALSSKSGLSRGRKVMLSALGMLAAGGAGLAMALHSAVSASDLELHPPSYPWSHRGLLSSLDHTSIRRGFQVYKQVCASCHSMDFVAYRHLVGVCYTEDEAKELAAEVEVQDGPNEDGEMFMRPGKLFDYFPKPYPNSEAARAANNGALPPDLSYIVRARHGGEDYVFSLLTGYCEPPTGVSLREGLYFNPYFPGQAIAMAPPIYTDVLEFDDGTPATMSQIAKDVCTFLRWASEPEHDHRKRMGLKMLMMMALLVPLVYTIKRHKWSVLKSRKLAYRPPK

Activity calls are given as the source filed them.
Further: in the data inactive means no Kd found up to 30 µM.

Serine/threonine-protein kinase N2, sequence (Q16513 whole entry): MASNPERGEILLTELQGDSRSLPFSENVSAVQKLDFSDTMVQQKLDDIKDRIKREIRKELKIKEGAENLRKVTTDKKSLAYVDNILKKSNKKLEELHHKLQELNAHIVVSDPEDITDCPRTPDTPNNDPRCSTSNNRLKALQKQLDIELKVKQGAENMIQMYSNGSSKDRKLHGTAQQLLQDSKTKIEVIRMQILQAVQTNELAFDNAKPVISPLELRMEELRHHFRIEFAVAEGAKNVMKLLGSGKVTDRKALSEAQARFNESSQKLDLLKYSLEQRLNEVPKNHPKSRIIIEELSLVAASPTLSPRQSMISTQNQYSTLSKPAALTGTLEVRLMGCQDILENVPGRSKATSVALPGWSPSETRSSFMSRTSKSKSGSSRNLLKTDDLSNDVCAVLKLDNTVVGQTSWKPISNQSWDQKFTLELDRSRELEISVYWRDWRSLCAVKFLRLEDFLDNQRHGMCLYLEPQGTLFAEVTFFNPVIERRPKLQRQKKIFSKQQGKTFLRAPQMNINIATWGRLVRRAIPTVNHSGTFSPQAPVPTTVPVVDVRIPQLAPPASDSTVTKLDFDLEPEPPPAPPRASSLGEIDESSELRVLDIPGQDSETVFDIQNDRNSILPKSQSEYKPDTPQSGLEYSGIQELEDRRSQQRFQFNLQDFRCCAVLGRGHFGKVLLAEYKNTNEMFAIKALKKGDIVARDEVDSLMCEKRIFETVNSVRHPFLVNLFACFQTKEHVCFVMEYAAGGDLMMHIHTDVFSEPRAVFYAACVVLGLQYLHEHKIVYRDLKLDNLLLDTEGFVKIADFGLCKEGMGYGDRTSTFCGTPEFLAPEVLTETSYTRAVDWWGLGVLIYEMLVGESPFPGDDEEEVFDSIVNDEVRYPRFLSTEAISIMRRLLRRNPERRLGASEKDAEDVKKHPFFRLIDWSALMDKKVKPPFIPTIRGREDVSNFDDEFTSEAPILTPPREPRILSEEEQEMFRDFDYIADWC
NADH dehydrogenase [ubiquinone] 1 alpha subcomplex subunit 13, sequence (Q9P0J0 whole entry, one chain of several): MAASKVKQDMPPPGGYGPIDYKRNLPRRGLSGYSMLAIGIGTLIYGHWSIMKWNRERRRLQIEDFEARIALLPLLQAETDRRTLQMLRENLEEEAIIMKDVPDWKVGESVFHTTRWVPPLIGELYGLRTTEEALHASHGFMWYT
Myosin-14, sequence (Q7Z406 whole entry): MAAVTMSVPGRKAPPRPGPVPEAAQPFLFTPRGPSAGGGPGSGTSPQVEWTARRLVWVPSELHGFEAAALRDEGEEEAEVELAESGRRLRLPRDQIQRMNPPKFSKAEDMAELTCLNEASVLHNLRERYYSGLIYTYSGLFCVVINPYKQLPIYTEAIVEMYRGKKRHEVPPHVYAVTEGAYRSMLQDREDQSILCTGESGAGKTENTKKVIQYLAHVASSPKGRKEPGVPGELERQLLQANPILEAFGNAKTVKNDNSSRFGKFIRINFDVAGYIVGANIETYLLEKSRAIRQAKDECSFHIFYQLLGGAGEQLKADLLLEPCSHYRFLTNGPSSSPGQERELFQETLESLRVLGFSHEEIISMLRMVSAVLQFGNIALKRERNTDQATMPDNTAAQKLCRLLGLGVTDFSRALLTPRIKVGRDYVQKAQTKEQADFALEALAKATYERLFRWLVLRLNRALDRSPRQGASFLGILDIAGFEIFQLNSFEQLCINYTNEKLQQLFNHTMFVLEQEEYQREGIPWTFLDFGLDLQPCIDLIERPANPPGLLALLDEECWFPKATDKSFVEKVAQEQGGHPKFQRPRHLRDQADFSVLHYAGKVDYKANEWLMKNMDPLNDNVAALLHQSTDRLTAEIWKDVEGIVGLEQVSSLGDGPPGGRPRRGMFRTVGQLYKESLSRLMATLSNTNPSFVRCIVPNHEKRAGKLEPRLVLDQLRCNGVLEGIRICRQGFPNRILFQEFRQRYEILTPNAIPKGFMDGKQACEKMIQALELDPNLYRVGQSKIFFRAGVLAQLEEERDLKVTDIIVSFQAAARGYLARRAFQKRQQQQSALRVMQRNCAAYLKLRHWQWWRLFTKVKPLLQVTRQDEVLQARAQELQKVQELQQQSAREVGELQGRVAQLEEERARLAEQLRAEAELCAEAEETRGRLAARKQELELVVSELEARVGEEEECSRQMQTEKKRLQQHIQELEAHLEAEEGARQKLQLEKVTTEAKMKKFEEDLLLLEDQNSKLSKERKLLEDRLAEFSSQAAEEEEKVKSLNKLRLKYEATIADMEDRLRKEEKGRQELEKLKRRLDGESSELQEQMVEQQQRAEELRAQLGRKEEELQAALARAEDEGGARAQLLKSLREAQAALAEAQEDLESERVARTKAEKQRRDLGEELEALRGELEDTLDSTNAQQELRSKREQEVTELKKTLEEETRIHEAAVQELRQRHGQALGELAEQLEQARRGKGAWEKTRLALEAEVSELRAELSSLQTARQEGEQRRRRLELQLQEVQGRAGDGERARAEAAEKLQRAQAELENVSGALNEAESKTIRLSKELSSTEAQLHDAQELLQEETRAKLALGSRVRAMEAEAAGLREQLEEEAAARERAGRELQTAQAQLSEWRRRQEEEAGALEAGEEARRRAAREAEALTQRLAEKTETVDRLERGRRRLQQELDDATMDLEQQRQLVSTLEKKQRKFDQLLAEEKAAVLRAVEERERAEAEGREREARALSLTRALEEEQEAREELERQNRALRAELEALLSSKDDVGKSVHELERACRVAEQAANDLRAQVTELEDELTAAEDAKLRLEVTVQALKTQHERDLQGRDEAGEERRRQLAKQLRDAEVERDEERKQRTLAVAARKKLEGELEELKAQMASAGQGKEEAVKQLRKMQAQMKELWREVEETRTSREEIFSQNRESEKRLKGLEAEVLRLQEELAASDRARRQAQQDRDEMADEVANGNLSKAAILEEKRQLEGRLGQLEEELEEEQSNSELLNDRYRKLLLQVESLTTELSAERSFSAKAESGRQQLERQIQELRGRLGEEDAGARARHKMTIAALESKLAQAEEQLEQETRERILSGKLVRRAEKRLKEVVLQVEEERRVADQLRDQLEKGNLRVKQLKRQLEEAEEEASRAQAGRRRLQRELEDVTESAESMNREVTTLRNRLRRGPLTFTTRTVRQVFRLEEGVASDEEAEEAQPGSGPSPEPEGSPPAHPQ

On to `C[C@@H](Oc1cc(C(=O)Nc2ccc(C(=O)N3CCN(C)CC3)cc2)nnc1N)c1c(Cl)ccc(F)c1Cl`, for which the Kd in assay [1], in assay [2], in assay [3], in assay [4], in assay [5] and in assay [6] was > 30 µM (inactive) each time. Further, the Kd in assay [7] is > 30 µM (inactive).
For the compound `C[C@H]1CNCCCN1S(=O)(=O)c1cccc2cncc(F)c12`, the Kd was > 30 µM (inactive) in assay [8]; 0.285 µM (active) in assay [1]; > 30 µM (inactive) in assay [2]; > 30 µM (inactive) in assay [3]; 11.8 µM (active) in assay [4]; > 30 µM (inactive) in assay [5]. For the same compound, the Kd in assay [6] and in assay [7] was > 30 µM (inactive) throughout.
As to `CC(=O)c1cnc2ccc(-c3cc(Cl)c(O)c(Cl)c3)nc2c1N[C@H]1CC[C@H](CN(C)C)CC1`, the Kd in assay [8] was > 30 µM (inactive); in assay [1], > 30 µM (inactive); in assay [2] it was > 30 µM (inactive); in assay [3], > 30 µM (inactive); in assay [4], 0.021 µM (active); in assay [5], 0.118 µM (active). Moreover, the Kd in assay [6] and in assay [7] was > 30 µM (inactive) throughout.
`CCNC(=O)C#Cc1ccc2c(c1)NC(=O)/C2=C(\Nc1ccc(CN(C)C)cc1)c1ccccc1`: the Kd in assay [8], in assay [1], in assay [2], in assay [3], in assay [4] and in assay [5] was > 30 µM (inactive) each time. The Kd in assay [6] was > 30 µM (inactive); in assay [7] it was 0.885 µM (active).
With `C=CC(=O)N1CCC[C@H](n2c(=O)n(-c3ccc(Oc4ccccc4)cc3)c3c(N)ncnc32)C1`, the Kd in assay [8], in assay [1], in assay [2], in assay [3], in assay [4] and in assay [5] was > 30 µM (inactive) throughout. For the same compound, the Kd in assay [6] is > 30 µM (inactive); in assay [7], 0.006 µM.
For the compound `Cc1nc2cc(-c3nn(C(C)C)c4ncnc(N)c34)ccc2o1`, the Kd in assay [8], in assay [1], in assay [2], in assay [3], in assay [4] and in assay [5] was > 30 µM (inactive) each time. Further, the Kd in assay [6] and in assay [7] was > 30 µM (inactive) throughout.
Take `COCc1c(-c2ccc(NC(=O)Nc3cc(C(F)(F)F)ccc3F)c(F)c2)c2c(N)ncnn2c1CN1CCOCC1`: the Kd in assay [8], in assay [1], in assay [2], in assay [3], in assay [4] and in assay [5] was > 30 µM (inactive) in each case. The Kd in assay [6] and in assay [7] was > 30 µM (inactive) throughout.
For `Nc1ncnc2c1c(-c1cccc(OCc3ccccc3)c1)cn2[C@H]1C[C@@H](CN2CCC2)C1` [AEW-541], the Kd in assay [8], in assay [1], in assay [2], in assay [3], in assay [4] and in assay [5] was > 30 µM (inactive) in each case. The Kd in assay [6] and in assay [7] was > 30 µM (inactive) throughout.
For `COc1cc([C@@H]2c3cc4c(cc3[C@H](O)[C@H]3COC(=O)[C@@H]23)OCO4)cc(OC)c1OC` [AXL-1717], the Kd in assay [8], in assay [1], in assay [2], in assay [3], in assay [4] and in assay [5] was > 30 µM (inactive) throughout. The Kd in assay [6] and in assay [7] was > 30 µM (inactive) throughout.
Regarding `NC(=O)Nc1cc(-c2cccc(F)c2)sc1C(=O)N[C@H]1CCCNC1` [AZD-7762], the Kd in assay [1] is 3.1 µM (active); in assay [2] it was > 30 µM (inactive); in assay [3], > 30 µM (inactive); in assay [4], > 30 µM (inactive); in assay [5] it was 0.948 µM (active); in assay [6] it was > 30 µM (inactive). Also, the Kd in assay [7] is 2.61 µM (active).
Turning to `Cc1cc(C(=O)NOCCO)c(Nc2ccc(I)cc2F)n(C)c1=O` [AZD-8330], the Kd in assay [8], in assay [1], in assay [2], in assay [3], in assay [4] and in assay [5] was > 30 µM (inactive) each time. The Kd in assay [6] and in assay [7] was > 30 µM (inactive) in each case.
As for `Cn1cnc2c(F)c(Nc3ccc(Br)cc3F)c(C(=O)NOCCO)cc21` [BINIMETINIB], the Kd in assay [8], in assay [1], in assay [2], in assay [3], in assay [4] and in assay [5] was > 30 µM (inactive) in each case. Also, the Kd in assay [6] and in assay [7] was > 30 µM (inactive) each time.
For `CCn1c(C(=O)N(C2CC2)C2CC2)cc2c3c(ncn3C)c(Nc3cc(C)n(C)n3)nc21` [BMS-911543], the Kd in assay [8], in assay [1], in assay [2], in assay [3], in assay [4] and in assay [5] was > 30 µM (inactive) throughout. Further, the Kd in assay [6] and in assay [7] was > 30 µM (inactive) in each case.
With `COc1cc2ncnc(Oc3cccc(NC(=O)Nc4cc(C(C)(C)C(F)(F)F)on4)c3)c2cc1OC` [CEP-32496], the Kd in assay [8], in assay [1], in assay [2], in assay [3], in assay [4] and in assay [5] was > 30 µM (inactive) throughout. Further, the Kd in assay [6] and in assay [7] was > 30 µM (inactive) throughout.
As for `Cc1nc2cc(-n3ncc(C(=O)c4cc5ccccc5[nH]4)c3N)ccc2[nH]1` [FGFR INHIBITOR DEBIO 1347], the Kd in assay [8], in assay [1], in assay [2], in assay [3], in assay [4] and in assay [5] was > 30 µM (inactive) throughout. In assay [7], the Kd is > 30 µM (inactive).
Turning to `COc1ccc(S(=O)(=O)N(C(C)=O)c2ccccc2/C=C/c2cc[n+]([O-])cc2)cc1` [HMN-214], the Kd in assay [8], in assay [1], in assay [2], in assay [3], in assay [4] and in assay [5] was > 30 µM (inactive) throughout. For the same compound, the Kd in assay [7] is > 30 µM (inactive).
